# Data as given in patent US20190002942A1, “ANTIBIOTIC FIIRV 104/18 COMPLEX AND THE ISOLATED INDIVIDUAL FACTORS THEREOF” (Fondazione Istituto Insubrico di Ricerca per la Vita, priority 2015, published 2019).
# Read-outs that look alike come from different tables or passages of the source.
# Tests used:
# L145 C. albicans = test: MIC, broth microdilution (CLSI); format: cell-based, Candida albicans
# Procedure: (§1) Antimicrobial activity of the antibiotic FIIRV 104/18 complex is determined by the broth microdilution method according to the procedures published by the Clinical and Laboratory Standards Institute (CLSI), formerly the National Committee for Clinical Laboratory Standards (NCCLS) (document M07-A9). Inocula are: 2-5×10^5 CFU/mL for Gram positive and Gram negative bacteria; 10^4 CFU/mL for Candida albicans.
# (§2) The media used are: cation adjusted Mueller Hinton broth (CAMHB) for Staphylococci, Enterococci, Moraxella catarrhalis, Escherichia coli; Todd Hewitt broth (THB) for Streptococci; RPMI 1640 Medium for C. albicans. The effect of 30% bovine serum is determined under the same experimental conditions.
# (§3) Cultures are incubated at 35° C. in air. After 18-24 hours visual readings are performed and MICs determined. The MIC (Minimal Inhibitory Concentration) is defined as the lower concentration of antibiotic at which there is no visible growth. The strains used are clinical isolates or strains from American Type Culture Collection (ATCC). Individual factors of antibiotic FIIRV 104/18 are dissolved in DMSO to obtain a 1000 μg/mL stock solution, and subsequently diluted in water to obtain working solution.
# [1] = test system: L819 S. aureus Smith ATCC19636; test: MIC, broth microdilution (CLSI); format: cell-based, Staphylococcus aureus; conditions: Staphylococcus aureus
# Procedure: (§4) Inocula are: 2-5×10^5 CFU/mL for Gram positive and Gram negative bacteria; 10^4 CFU/mL for Candida albicans.
# (§5) The effect of 30% bovine serum is determined under the same experimental conditions.
# (§6) Cultures are incubated at 35° C. in air. After 18-24 hours visual readings are performed and MICs determined. The MIC (Minimal Inhibitory Concentration) is defined as the lower concentration of antibiotic at which there is no visible growth. The strains used are clinical isolates or strains from American Type Culture Collection (ATCC).
# L100 S. aureus ATCC 6538 = test: MIC, broth microdilution (CLSI); format: cell-based; conditions: Staphylococcus aureus, ATCC6538
# Procedure: as §4, §5, §6
# L1400 S. aureus MRSA = test: MIC, broth microdilution (CLSI); format: cell-based; conditions: Staphylococcus aureus
# Procedure: as §4, §5, §6
# L1577 S. epidermidis = test: MIC, broth microdilution (CLSI); format: cell-based; conditions: Staphylococcus epidermidis
# Procedure: as §4, §5, §6
# [2] = test system: L1729 S. haemolyticus MDR; test: MIC, broth microdilution (CLSI); format: cell-based; conditions: Staphylococcus haemolyticus
# Procedure: as §4, §5, §6
# L1730 S. haemolyticus = test: MIC, broth microdilution (CLSI); format: cell-based; conditions: Staphylococcus haemolyticus
# Procedure: as §4, §5, §6
# L3030 A. baumannii = test: MIC, broth microdilution (CLSI); format: cell-based; conditions: Acinetobacter baumannii
# Procedure: as §4, §5, §6
# L3294 M. catarrhalis = test: MIC, broth microdilution (CLSI); format: cell-based; conditions: Moraxella catarrhalis
# Procedure: as §4, §5, §6
# L44 S. pneumoniae = test: MIC, broth microdilution (CLSI); format: cell-based; conditions: Streptococcus pneumoniae
# Procedure: as §4, §5, §6
# L47 E. coli, SKF 12140 = test: MIC, broth microdilution (CLSI); format: cell-based; conditions: Escherichia coli
# Procedure: as §4, §5, §6
# L49 S. pyogenes C203 = test: MIC, broth microdilution (CLSI); format: cell-based; conditions: Streptococcus pyogenes
# Procedure: as §4, §5, §6
# L559 E. faecalis = test: MIC, broth microdilution (CLSI); format: cell-based; conditions: Enterococcus faecalis
# Procedure: as §4, §5, §6
# L568 E. faecium = test: MIC, broth microdilution (CLSI); format: cell-based; conditions: Enterococcus faecium
# Procedure: as §4, §5, §6
# L569 E. faecium VanA = test: MIC, broth microdilution (CLSI); format: cell-based, Enterococcus faecium; conditions: Enterococcus faecium, L569 E. faecium VanA
# Procedure: as §4, §5, §6
# L560 E. faecalis VanA = test: MIC, broth microdilution (CLSI); format: cell-based, Enterococcus faecalis; conditions: Enterococcus faecalis, L560 E. faecalis VanA
# Procedure: as §4, §5, §6
# L2048 B. cenocepacia = test: MIC, broth microdilution (CLSI); format: cell-based; conditions: Burkholderia cenocepacia
# Procedure: as §1, §2, §3
# [3] = test system: Gram-positive susceptible, resistant and multi-resistant pathogenic bacteria; test: Growth inhibition of Gram-positive bacteria (summary); format: cell-based; conditions: Gram positive bacteria: Staphylococci incl. MRSA and MR coagulase-negative, Streptococci, Enterococci incl. VanA
# Procedure: as §1, §2, §3
# HeLa cells = test: Inhibition of replication of HeLa cells; format: cell-based
# [4] = ATCC19636, L819 S. aureus Smith ATCC19636, CAMHB, read-out: MIC
# [5] = ATCC19636, L819 S. aureus Smith, +30% SB (bovine serum), read-out: MIC
# [6] = L100 S. aureus ATCC 6538, CAMHB, read-out: MIC
# [7] = L1400 S. aureus MRSA, CAMHB, read-out: MIC
# [8] = L1577 S. epidermidis, CAMHB, read-out: MIC
# [9] = L1729 S. haemolyticus MDR, CAMHB, read-out: MIC
# [10] = L1730 S. haemolyticus, CAMHB, read-out: MIC
# [11] = L3030 A. baumannii, read-out: MIC
# [12] = L3294 M. catarrhalis, CAMHB, read-out: MIC
# [13] = L44 S. pneumoniae, THB, read-out: MIC
# [14] = L47 E. coli, SKF 12140, CAMHB, read-out: MIC
# [15] = L49 S. pyogenes C203, THB, read-out: MIC
# [16] = L559 E. faecalis, CAMHB, read-out: MIC
# [17] = L568 E. faecium, CAMHB, read-out: MIC
# [18] = +30% SB (bovine serum), read-out: MIC
# [19] = L2048 B. cenocepacia, read-out: MIC
# [20] = Candida albicans, L145 C. albicans, RPMI, inoculum 10^4 CFU/mL, read-out: MIC
"MIC [1, 4] [µg/mL]","MIC [1, 5] [µg/mL]",MIC (L100 S. aureus ATCC 6538; [6]) [µg/mL],MIC (L1400 S. aureus MRSA; [7]) [µg/mL],MIC (L1577 S. epidermidis; [8]) [µg/mL],MIC (L3030 A. baumannii; [11]) [µg/mL],MIC (L3294 M. catarrhalis; [12]) [µg/mL],MIC (L44 S. pneumoniae; [13]) [µg/mL],"MIC (L47 E. coli, SKF 12140; [14]) [µg/mL]",MIC (L49 S. pyogenes C203; [15]) [µg/mL],MIC (L559 E. faecalis; [16]) [µg/mL],MIC (L568 E. faecium; [17]) [µg/mL],MIC (L569 E. faecium VanA; [18]) [µg/mL],"MIC (L569 E. faecium VanA; CAMHB, read-out: MIC) [µg/mL]",MIC (L560 E. faecalis VanA; [18]) [µg/mL],"MIC (L560 E. faecalis VanA; CAMHB, read-out: MIC) [µg/mL]",MIC (L2048 B. cenocepacia; [19]) [µg/mL],Structure (SMILES),"MIC [2, 9] [µg/mL]",MIC (L1730 S. haemolyticus; [10]) [µg/mL],antibacterial activity (in words) [3],also measured
–,–,–,–,–,–,–,–,–,–,–,–,–,–,–,–,–,"C[C@@H]1[C@H](O)[C@@H](C)/C=C/C=C/C=C/C=C/C=C/C=C/C=C/[C@H](O[C@@H]2O[C@H](C)[C@@H](O)[C@H](N)[C@@H]2O)C[C@@H]2O[C@](O)(C[C@@H](O)C[C@@H](O)[C@H](O)CC[C@@H](O)C[C@@H](O)CC(=O)O[C@H]1C)C[C@H](O)[C@H]2C(=O)O [AmB, Amphotericin B, reference compound]",–,–,–,"MIC (L145 C. albicans; L145 C. albicans, RPMI, inoculum 10^4 CFU/mL): 1 µg/mL"
–,–,–,–,–,–,–,–,–,–,–,–,–,–,–,–,–,"COC(=O)c1c(C)cc2c(c1O)C1(O)C(=O)c3cc4c(c(O)c3C(=O)C1(OC)[C@H](O)C2)C(=O)C=C(NC1O[C@@H](C)[C@H](OC2C=CC(=O)C(C)O2)[C@@H](O)[C@H]1OC)C4=O (stereo partly drawn) [F793, (6R,6aS,14aR)-methyl 11-[(2S,3R,4R,5R,6S)-4-hydroxy-3-methoxy-6-methyl-5-{[(2S,6S)-6-methyl-5-oxo-5,6-dihydro-2H-pyran-2-yl]oxy}tetrahydro-2H-pyran-2-ylamino]-1,6,8,14a-tetrahydroxy-6a-methoxy-3-methyl-7,9,12,14-tetraoxo-5,6,6a,7,9,12,14,14a-octahydrobenzo[α]tetracene-2-carboxylate]",–,–,very high antibacterial activity,"MIC ([1]; ATCC19636, L819 S. aureus Smith ATCC19636, CAMHB): 0.5 µg/mL; MIC ([1]; ATCC19636, L819 S. aureus Smith, +30% SB (bovine serum)): 4 µg/mL; MIC (L100 S. aureus ATCC 6538): 1 µg/mL; MIC (L1400 S. aureus MRSA; MRSA): 0.5 µg/mL; MIC (L1577 S. epidermidis): 0.25 µg/mL; MIC [2]: 1 µg/mL; MIC (L1730 S. haemolyticus): 1 µg/mL; MIC (L3030 A. baumannii): 128 µg/mL; MIC (L3294 M. catarrhalis): 1 µg/mL; MIC (L44 S. pneumoniae): 0.06 µg/mL; MIC (L47 E. coli, SKF 12140): > 128 µg/mL; MIC (L49 S. pyogenes C203): 0.03 µg/mL; MIC (L559 E. faecalis): 0.5 µg/mL; MIC (L568 E. faecium): 1 µg/mL; MIC (L569 E. faecium VanA; +30% SB (bovine serum)): 16 µg/mL; MIC (L569 E. faecium VanA; CAMHB): 1 µg/mL; MIC (L560 E. faecalis VanA; +30% SB (bovine serum)): 2 µg/mL; MIC (L560 E. faecalis VanA; CAMHB): 0.5 µg/mL; MIC (L2048 B. cenocepacia): 128 µg/mL; MIC (L145 C. albicans; Candida albicans): > 128 µg/mL"
0.002,0.125,0.008,0.015,0.015,16,0.06,0.004,64,0.002,0.25,0.5,2,0.5,0.5,0.125,16,"COC(=O)c1c(C)cc2c(c1O)[C@]1(O)C(=O)c3cc4c(c(O)c3C(=O)[C@]1(OC)[C@H](O)C2)C(=O)C=C(NC1O[C@@H](C)[C@H](OC2CC[C@H](O)C(C)O2)[C@@H](O)[C@H]1OC)C4=O (stereo partly drawn) [F797, (6R,6aS,14aR)-methyl 11-[(2S,3R,4R,5R,6S)-4-hydroxy-5-{[(2R,5S,6S)-5-hydroxy-6-methyltetrahydro-2H-pyran-2-yl]oxy}-3-methoxy-6-methyltetrahydro-2H-pyran-2-ylamino]-1,6,8,14a-tetrahydroxy-6a-methoxy-3-methyl-7,9,12,14-tetraoxo-5,6,6a,7,9,12,14,14a-octahydrobenzo[α]tetracene-2-carboxylate]",0.015,0.015,very high antibacterial activity,"MIC (L145 C. albicans; [20]): > 128 µg/mL; cytotoxicity (in words) (HeLa cells; HeLa cells): moderate cytotoxicity; IC50 (HeLa cells; Homo sapiens, HeLa): 5 µg/mL"
0.125,1,0.125,0.5,0.5,128,0.5,0.125,128,0 to 125,4,4,16,4,16,4,64,"COC(=O)c1c(C)cc2c(c1O)[C@]1(O)C(=O)c3cc4c(c(O)c3C(=O)[C@]1(OC)[C@H](O)C2)C(=O)C=C(NC1O[C@@H](C)[C@H](OC2C[C@H](O)[C@H](O)C(C)O2)[C@@H](O)[C@H]1OC)C4=O (stereo partly drawn) [F813, (6R,6aS,14aR)-methyl 11-[(2S,3R,4R,5R,6S)-5-{[(2R,5S,6S)-4,5-dihydroxy-6-methyltetrahydro-2H-pyran-2-yl]oxy}-4-hydroxy-3-methoxy-6-methyltetrahydro-2H-pyran-2-ylamino]-1,6,8,14a-tetrahydroxy-6a-methoxy-3-methyl-7,9,12,14-tetraoxo-5,6,6a,7,9,12,14,14a-octahydrobenzo[α]tetracene-2-carboxylate]",0.5,0.5,very high antibacterial activity,MIC (L145 C. albicans; [20]): > 128 µg/mL

Structure (SMILES),"MIC [1, 4] [µg/mL]","MIC [1, 5] [µg/mL]",MIC (L100 S. aureus ATCC 6538; [6]) [µg/mL],MIC (L1400 S. aureus MRSA; [7]) [µg/mL],MIC (L1577 S. epidermidis; [8]) [µg/mL],MIC (L3030 A. baumannii; [11]) [µg/mL],MIC (L3294 M. catarrhalis; [12]) [µg/mL],MIC (L44 S. pneumoniae; [13]) [µg/mL],"MIC (L47 E. coli, SKF 12140; [14]) [µg/mL]",MIC (L49 S. pyogenes C203; [15]) [µg/mL],MIC (L559 E. faecalis; [16]) [µg/mL],MIC (L568 E. faecium; [17]) [µg/mL],MIC (L569 E. faecium VanA; [18]) [µg/mL],"MIC (L569 E. faecium VanA; CAMHB, read-out: MIC) [µg/mL]",MIC (L560 E. faecalis VanA; [18]) [µg/mL],"MIC (L560 E. faecalis VanA; CAMHB, read-out: MIC) [µg/mL]",MIC (L2048 B. cenocepacia; [19]) [µg/mL],"MIC [2, 9] [µg/mL]",MIC (L1730 S. haemolyticus; [10]) [µg/mL],antibacterial activity (in words) [3],also measured
"COC(=O)c1c(C)cc2c(c1O)[C@]1(O)C(=O)c3cc4c(c(O)c3C(=O)[C@]1(OC)[C@H](O)C2)C(=O)C=C(NC1O[C@@H](C)[C@H](O)[C@@H](O)[C@H]1OC)C4=O (stereo partly drawn) [F683, 6R,6aS,14aR-methyl-11,6,8,14a-tetrahydroxy-11[(2S,3R,4R,5R,6S)-4,5-dihydroxy-3-methoxy-6-methyltetrahydro-2H-pyran-2-ylamino]-6a-methoxy-3-methyl-7,9,12,14-tetraoxo-5,6,6a,7,9,12,14,14a-octahydrobenzo[α]tetracene-2-carboxylate]",0.5,8,2,0.5,0.5,> 128,0.5,0.125,> 128,0.125,8,16,> 32,16,32,8,> 128,0.5,0.5,very high antibacterial activity,MIC (L145 C. albicans; [20]): > 128 µg/mL
